Measurements reported in US20260000642A1 (Tay Therapeutics Limited, priority 2022, published 2026).

Tests used:
[1] = Plasma stability assay, rat plasma; type: in vitro ADME; settings: 37° C.
Method: Exemplary compounds of the disclosure are stable upon incubation in mouse plasma. Stability is expressed as a % remaining after 120 minutes. The experimental methods and results (Table 2) are provided hereinafter.
Plasma Stability Assay, Method 1
From stock solution of compound in 10 mM DMSO, a working solution of 1 mM is prepared by diluting the compound in DMSO. To 398 μL of plasma pre-warmed at 37° C. for 15 minutes), 2 μL of working solution of compound is added, resulting in a final concentration of 5 μM (0.5% DMSO) for the compound. The sample is then incubated at 37° C. Aliquot is withdrawn at specified time-points (0, 15, 30, 60 and 120 mins). The reaction is stopped by addition of 450 μL cold acetonitrile containing internal standard (IS). […] Aliquots of the supernatant is analysed using LC-MS/MS. The percent remaining of the compound at each time point is calculated with respect to the control sample (0 min time-point).
Plasma Stability Assay, Method 2
A working solution of compound (500 μM) is prepared in DMSO (100%). To 735 μL of plasma, 15 μL of working solution of compound is added—resulting in a final concentration of 10 μM (2% DMSO) for the compound. The sample is then incubated at 37° C. Aliquot is withdrawn at time-points—0, 15, 30, 60, 90 and 120 mins. The reaction is stopped by using chilled acetonitrile containing internal standard (IS). The samples are centrifuged and the supernatants analyzed using LC-MS/MS. The percent remaining of the compound at each time point is calculated with respect to the control sample (0 min time-point).

[2] = Sprague-Dawley rat pharmacokinetics (IV and PO); type: in vivo; settings: male Sprague-Dawley rats, cassette mode, Method 1
Source text: BET protein inhibitors with a long half-life and good oral bioavailability in in vivo DMPK parameters are promising oral drug candidates. Some of the exemplary compounds of the current disclosure have a long half-life and good oral bioavailability in in vivo DMPK parameters in the Sprague-Dawley rat following intravenous (IV) and oral (PO) dosing. The experimental methods and results (Table 5) are provided hereinafter.
Sprague-Dawley Rat Pharmacokinetics, Method 1
Compounds were formulated in 5% DMSO, 40% PEG-400, 55% Milli-Q water at a concentration of 0.2 mg/mL for IV and at 0.5 mg/mL for PO. Two male Sprague-Dawley rats per arm were dosed with up to 5 compounds in cassette mode, which each compound being dosed at 1 mg/kg IV and 5 mg/kg PO. Blood was sampled at various timepoints and plasma isolated. 50 μL of plasma with 5 μL of blank Sprague-Dawley rat plasma were added to 200 μL of acetonitrile containing IS mixture. The samples were vortexed for 30 s. After centrifugation at 4 degrees Celsius, 3900 rpm for 15 min, the supernatant was diluted 3 times with water. 20 μL of diluted supernatant was injected into the LC/MS/MS system for quantitative analysis and concentration of analyte determined by comparison with matrix matched standard curve. WinNonlin (Phoenix™, version 8.3) or other similar software may be used for pharmacokinetic calculations.

[3] = target: T1, BRD4 BD1 (Homo sapiens, UniProt O60885); experiment: NanoBRET bromodomain assay, NanoLuc-BRD4-BD1 fusion vector in HEK293 cells; type: cell-based; settings: top concentration 10 μM
T1 construct: HEK293 cells were transfected using NanoLuc-BRD4-BD1 or NanoLuc-BRD4-BD2 fusion vectors; host or cells: HEK293
Source text: (§1) Bromodomain Assay Procedure

[4] = target: T2, BRD4 BD2 (Homo sapiens, UniProt O60885); experiment: NanoBRET bromodomain assay, NanoLuc-BRD4-BD2 fusion vector in HEK293 cells; type: cell-based; settings: NanoBRET, HEK293 cells, top concentration 10 μM
T2 construct: HEK293 cells were transfected using NanoLuc-BRD4-BD1 or NanoLuc-BRD4-BD2 fusion vectors; host or cells: HEK293
Source text: as §1

[5] = Intrinsic clearance in liver microsomes, rat; type: in vitro ADME; settings: pH 7.4, rat liver microsomes 0.5 mg/mL, Method 1, read-out: Half-Life (T1/2) (min) Rat
Method: (§2) BET protein inhibitors with a long half-life in liver microsomes from various species are in some embodiments promising oral drug candidates. Some of the exemplary compounds of the current disclosure have a long half-life in liver microsomes, expressed in minutes. The experimental methods and results (Table 3) are provided hereinafter.
(§3) Intrinsic Clearance in Liver Microsomes Assay, Method 1
(§4) From stock solution of compound on 10 mM DMSO, a working solution of 0.1 mM is prepared by diluting the compound in DMSO. 6.25 μL of a 20 mg/mL solution of microsomes in PBS pH 7.4 buffer is added to 216.25 μL PBS pH 7.4 buffer (final microsome concentration—0.5 mg/mL). 25 μL of 10 mM solution of NADPH in PBS pH 7.4 buffer is added to the incubations (final NADPH concentration—1 mM). The mixture is pre-warmed to 37° C. for 10 minutes. 2.5 μL of test compound working solution is added (final compound concentration—1 μM with 1% DMSO). […] The percent compound remaining at each time point is calculated with respect to that of the 0.5 min sample. The data are analysed to calculate half-life. […]
(§5) A 50 mM stock solution (in DMSO) is prepared for the compound. […] The samples are centrifuged, and the supernatants analysed by LC-MS/MS. The percent compound remaining at each time point is calculated with respect to that of the 0 min sample. The data are then analysed to calculate half-life and intrinsic clearance (CLint). […]

[6] = Plasma stability assay, human plasma; type: in vitro ADME; settings: 37° C., Method 1 (5 μM)
[7] = Intrinsic clearance in liver microsomes, mouse; type: in vitro ADME; settings: pH 7.4, mouse liver microsomes 0.5 mg/mL, Method 1, read-out: Half-Life (T1/2) (min) Mouse
Method: as §2, §3, §4, §5

[8] = test system: IL-17A; experiment: Human PBMC assay, IL-17A by ELISA (CD2/CD3/CD28 bead stimulation); type: cell-based; settings: 72 hours
Method: (§6) CD2, CD3, and CD28 antibody-coated beads from the T-cell activation/expansion kit (Miltenyi Biotec) were added to the PBMC at a bead-to-cell ratio of 1:2. The mixture of PBMCs and beads were seeded into the wells of the round-bottom 96-well plate at a concentration of 2×10^5 cells/well in a total volume of 200 μL. The cells were cultured for 72 hours at 37° C. and 5% CO2 and then supernatants were collected and IL-17A and IL-22 levels were measured by ELISA. […] The final compound concentration ranged from 30,000 nM to 0.005 nM and the final DMSO concentration per well was 0.3%. PBMCs were seeded at approximately […] in the wells of the 96-well tissue culture plate in a total volume of 190 μL. The plate was incubated for 1 hour at 37° C. and 5% CO2. […] The cells were then cultured for 24 hours at 37° C. and 5% CO2. The supernatant was collected and CXCL10 levels were measured by ELISA.

[9] = test system: IL-22; experiment: Human PBMC assay, IL-22 by ELISA (CD2/CD3/CD28 bead stimulation); type: cell-based; settings: 72 hours
Method: as §6

[10] = test system: CXCL10; experiment: Human PBMC assay, CXCL10 by ELISA (IFN-γ stimulation); type: cell-based
Method: The impact of Examples 23, 80, and 101 on IL-17A, IL-22, and CXCL10 levels was analyzed in cryopreserved human peripheral blood mononuclear cells (PBMC) by ELISA.
For IL-17A and IL-22 assays, Examples 23, 80, and 101 were serially diluted from 10 mM in DMSO and further diluted in assay media to 100× the required final concentration, of which, 2 μL was added per well to a round-bottom 96-well tissue culture plate where the final DMSO concentration per well was 0.1%. CD2, CD3, and CD28 antibody-coated beads from the T-cell activation/expansion kit (Miltenyi Biotec) were added to the PBMC at a bead-to-cell ratio of 1:2. The mixture of PBMCs and beads were seeded into the wells of the round-bottom 96-well plate at a concentration of 2×10^5 cells/well in a total volume of 200 μL. The cells were cultured for 72 hours at 37° C. and 5% CO2 and then supernatants were collected and IL-17A and IL-22 levels were measured by ELISA. For the CXCL10 assay, Examples 23, 80, and 101 were serially diluted from 10 mM in DMSO and further diluted in assay media to 100× the required final concentration, of which 2 μL was added per well to a 96-well tissue culture plate. The final compound concentration ranged from 30,000 nM to 0.005 nM and the final DMSO concentration per well was 0.3%. PBMCs were seeded at approximately […] in the wells of the 96-well tissue culture plate in a total volume of 190 μL. The plate was incubated for 1 hour at 37° C. and 5% CO2. The cells were then stimulated with IFN-γ (15 ng/mL final concentration) in a volume of 10 μL. The cells were then cultured for 24 hours at 37° C. and 5% CO2. The supernatant was collected and CXCL10 levels were measured by ELISA.

CNC(=O)c1[nH]c(C(=O)NC2COC2)cc1OC(C)c1ccc(Cl)cc1 (single isomer, unassigned) [Example 31, 3-(1-(4-chlorophenyl)ethoxy)-N^2-methyl-N^5-(oxetan-3-yl)-1H-pyrrole-2,5-dicarboxamide]
Plasma Stability (% remaining at 120 minutes) Rat ([1]; Method 2 (10 μM)): 81%
IV T1/2 ([2]; IV 1 mg/kg): 0.6 h
PO F (%) ([2]; PO 5 mg/kg (IV 1 mg/kg)): 15%
IC50 [3]: ≥ 10000 nM
IC50 [4]: 50 to 200 nM

CNC(=O)c1[nH]c(C(=O)N[C@H]2CC[C@H](O)CC2)cc1O[C@@H](C)c1ccccc1 (single isomer, unassigned) [Example 97]
Plasma Stability (% remaining at 120 minutes) Rat ([1]; Method 1 (5 μM)): >99%
half-life at 1 μM [5]: > 60 min
Plasma Stability (% remaining at 120 minutes) Human [6]: >99%
half-life at 1 μM [7]: 70 min
bioavailability ([2]; rat, plasma, PO 5 mg/kg (IV 1 mg/kg), read-out: PO F (%)): 60%

CNC(=O)c1[nH]c(-c2ncc(C)[nH]2)cc1O[C@@H](C)c1ccccc1 [Example 23, (S)—N-methyl-5-(5-methyl-1H-imidazol-2-yl)-3-(1-phenylethoxy)-1H-pyrrole-2-carboxamide]
IC50 for IL-17A relative to GSK620 [8]: decreased mean 1050
IC50 for IL-22 relative to GSK620 [9]: decreased mean 1050
selectivity to induction of CXCL10 relative to IL-17A and IL-22 [10]: showed selectivity

CNC(=O)c1[nH]c(-c2cnn(C(C)C)c2)cc1O[C@@H](C)c1ccccc1 [Example 80, (S)-5-(1-isopropyl-1H-pyrazol-4-yl)-N-methyl-3-(1-phenylethoxy)-1H-pyrrole-2-carboxamide]
IC50 for IL-17A relative to GSK620 [8]: increased mean 1050
IC50 for IL-22 relative to GSK620 [9]: decreased mean 1050
selectivity to induction of CXCL10 relative to IL-17A and IL-22 [10]: showed selectivity
